Active and inactive are the calls of the source. The rule behind the calls is not given here.

The test system of the series is CCRIS mutagenicity, Ames/micronucleus/aberration tests. Nature of the series: CCRIS mutagenicity studies.
The mark [1] stands for this setting: Test System: AMES SALMONELLA TYPHIMURIUM, Strain/Indicator: TA92, Metabolic Activation: NONE, Method: STANDARD PLATE.
[2] abbreviates: Test System: AMES SALMONELLA TYPHIMURIUM, Strain/Indicator: TA97, Metabolic Activation: NONE, Method: PREINCUBATION
The mark [3] stands for this setting: Test System: AMES SALMONELLA TYPHIMURIUM, Strain/Indicator: TA97, Metabolic Activation: RAT, LIVER, S-9, AROCLOR 1254, Method: PREINCUBATION
Setting [4] is: Test System: AMES SALMONELLA TYPHIMURIUM, Strain/Indicator: TA98, Metabolic Activation: NONE, Method: STANDARD PLATE.
Where [5] appears, read: Test System: AMES SALMONELLA TYPHIMURIUM, Strain/Indicator: TA100, Metabolic Activation: NONE, Method: STANDARD PLATE.
The mark [6] stands for this setting: Test System: AMES SALMONELLA TYPHIMURIUM, Strain/Indicator: TA102, Metabolic Activation: NONE, Method: PREINCUBATION
Setting [7] is: Test System: AMES SALMONELLA TYPHIMURIUM, Strain/Indicator: TA102, Metabolic Activation: RAT, LIVER, S-9, AROCLOR 1254, Method: PREINCUBATION

Turning to `Cc1occc(=O)c1O`, the mutagenic call reads like this: (End Point: IN VIVO MICRONUCLEUS, Test System: BONE MARROW POLYCHROMATIC ERYTHROCYTES, Species: MOUSE, Strain/Sex: DDY/MALE, Route: IP) “active; positive”; under setting [1], “inactive; negative”; under setting [2], “inactive; negative”; under setting [3], “inactive; negative”; under setting [4], “inactive; negative”; under setting [5], “inactive; negative”. In addition, the mutagenic call is “inactive; negative” under setting [6]; “inactive; negative” under setting [7]; “inactive; negative” (Test System: AMES SALMONELLA TYPHIMURIUM, Strain/Indicator: TA104, Metabolic Activation: NONE, Method: STANDARD PLATE).

`Cc1nc2cc(C)c3c(nc(N)n3C)c2nc1C`: the mutagenic call (Test System: AMES SALMONELLA TYPHIMURIUM, Strain/Indicator: TA98, Metabolic Activation: RAT, LIVER, S-9, AROCLOR 1254, Method: STANDARD PLATE) was “active; positive”.

As for `C=CCc1[c-]cccc1.C=CCc1[c-]cccc1.[Pt+2].c1ccc(P(c2ccccc2)c2ccccc2)cc1`, the mutagenic call is “inactive; negative” under setting [1]; “active; positive” under setting [4]; “inactive; negative” under setting [5]; “inactive; negative” (Test System: AMES SALMONELLA TYPHIMURIUM, Strain/Indicator: TA2410, Metabolic Activation: NONE, Method: STANDARD PLATE).

Take `O=C(Nc1ccccc1)c1csc([N+](=O)[O-])c1`: the mutagenic call is, setting by setting: (Test System: AMES SALMONELLA TYPHIMURIUM, Strain/Indicator: TA98(1,8-DNP6), Metabolic Activation: NONE, Method: STANDARD PLATE) “active; positive”; (Test System: AMES SALMONELLA TYPHIMURIUM, Strain/Indicator: TA98(NR), Metabolic Activation: NONE, Method: STANDARD PLATE) “inactive; negative”; under setting [4], “active; positive”; under setting [5], “active; positive”; (Test System: AMES SALMONELLA TYPHIMURIUM, Strain/Indicator: YG1021, Metabolic Activation: NONE, Method: STANDARD PLATE) “active; positive”; (Test System: AMES SALMONELLA TYPHIMURIUM, Strain/Indicator: YG1024, Metabolic Activation: NONE, Method: STANDARD PLATE) “active; positive”.

Regarding `CNC(=O)c1c(N(C)N=O)ncn1C`, the mutagenic call by setting is: under setting [4], “inactive; negative”; (Test System: AMES SALMONELLA TYPHIMURIUM, Strain/Indicator: TA98, Metabolic Activation: S-9, Method: PREINCUBATION) “inactive; negative”; (Test System: AMES SALMONELLA TYPHIMURIUM, Strain/Indicator: TA98, Metabolic Activation: S-9, Method: STANDARD PLATE) “inactive; negative”; under setting [5], “inactive; negative”; (Test System: AMES SALMONELLA TYPHIMURIUM, Strain/Indicator: TA100, Metabolic Activation: S-9, Method: PREINCUBATION) “inactive; negative”; (Test System: AMES SALMONELLA TYPHIMURIUM, Strain/Indicator: TA100, Metabolic Activation: S-9, Method: STANDARD PLATE) “inactive; negative”. Further, the mutagenic call reads like this: (Test System: AMES SALMONELLA TYPHIMURIUM, Strain/Indicator: TA102, Metabolic Activation: NONE, Method: STANDARD PLATE) “inactive; negative”; (Test System: AMES SALMONELLA TYPHIMURIUM, Strain/Indicator: TA102, Metabolic Activation: S-9, Method: PREINCUBATION) “inactive; negative”; (Test System: AMES SALMONELLA TYPHIMURIUM, Strain/Indicator: TA102, Metabolic Activation: S-9, Method: STANDARD PLATE) “inactive; negative”; (Test System: AMES SALMONELLA TYPHIMURIUM, Strain/Indicator: TA1535, Metabolic Activation: NONE, Method: STANDARD PLATE) “inactive; negative”; (Test System: AMES SALMONELLA TYPHIMURIUM, Strain/Indicator: TA1535, Metabolic Activation: S-9, Method: PREINCUBATION) “inactive; negative”; (Test System: AMES SALMONELLA TYPHIMURIUM, Strain/Indicator: TA1535, Metabolic Activation: S-9, Method: STANDARD PLATE) “inactive; negative”. Further, the mutagenic call was “inactive; negative” (Test System: AMES SALMONELLA TYPHIMURIUM, Strain/Indicator: TA1537, Metabolic Activation: NONE, Method: STANDARD PLATE); “inactive; negative” (Test System: AMES SALMONELLA TYPHIMURIUM, Strain/Indicator: TA1537, Metabolic Activation: S-9, Method: PREINCUBATION); “inactive; negative” (Test System: AMES SALMONELLA TYPHIMURIUM, Strain/Indicator: TA1537, Metabolic Activation: S-9, Method: STANDARD PLATE).

Regarding `O=Nc1cccc(-c2ccccc2)c1`, the mutagenic call was “active; positive” under setting [4] and “active; positive” under setting [5].

In the case of `CCCC(=O)O`, the mutagenic call runs as follows: under setting [2], “inactive; negative”; under setting [3], “inactive; negative”; (Test System: AMES SALMONELLA TYPHIMURIUM, Strain/Indicator: TA98, Metabolic Activation: NONE, Method: PREINCUBATION) “inactive; negative”; (Test System: AMES SALMONELLA TYPHIMURIUM, Strain/Indicator: TA98, Metabolic Activation: RAT LIVER S-9, PHENOBARBITAL AND BETA-NAPHTHOFLAVONE, Method: PREINCUBATION) “inactive; negative”; (Test System: AMES SALMONELLA TYPHIMURIUM, Strain/Indicator: TA100, Metabolic Activation: NONE, Method: PREINCUBATION) “inactive; negative”; (Test System: AMES SALMONELLA TYPHIMURIUM, Strain/Indicator: TA100, Metabolic Activation: RAT LIVER S-9, PHENOBARBITAL AND BETA-NAPHTHOFLAVONE, Method: PREINCUBATION) “inactive; negative”. Besides, the mutagenic call is “inactive; negative” under setting [6]; “inactive; negative” (Test System: AMES SALMONELLA TYPHIMURIUM, Strain/Indicator: TA102, Metabolic Activation: RAT LIVER S-9, PHENOBARBITAL AND BETA-NAPHTHOFLAVONE, Method: PREINCUBATION); “inactive; negative” under setting [7]; “inactive; negative” (Test System: AMES SALMONELLA TYPHIMURIUM, Strain/Indicator: TA104, Metabolic Activation: NONE, Method: PREINCUBATION); “inactive; negative” (Test System: AMES SALMONELLA TYPHIMURIUM, Strain/Indicator: TA104, Metabolic Activation: RAT LIVER S-9, PHENOBARBITAL AND BETA-NAPHTHOFLAVONE, Method: PREINCUBATION); “inactive; negative” (Test System: AMES SALMONELLA TYPHIMURIUM, Strain/Indicator: TA1535, Metabolic Activation: NONE, Method: PREINCUBATION). The mutagenic call (Test System: AMES SALMONELLA TYPHIMURIUM, Strain/Indicator: TA1535, Metabolic Activation: RAT LIVER S-9, PHENOBARBITAL AND BETA-NAPHTHOFLAVONE, Method: PREINCUBATION) was “inactive; negative”; the mutagenic call (Test System: AMES SALMONELLA TYPHIMURIUM, Strain/Indicator: TA1537, Metabolic Activation: NONE, Method: PREINCUBATION) was “inactive; negative”; the mutagenic call (Test System: AMES SALMONELLA TYPHIMURIUM, Strain/Indicator: TA1537, Metabolic Activation: RAT LIVER S-9, PHENOBARBITAL AND BETA-NAPHTHOFLAVONE, Method: PREINCUBATION) is “inactive; negative”; the mutagenic call (Test System: E.COLI, Strain/Indicator: WP2UVRA/PKM101, Metabolic Activation: NONE, Method: PREINCUBATION) is “inactive; negative”; the mutagenic call (Test System: E.COLI, Strain/Indicator: WP2UVRA/PKM101, Metabolic Activation: RAT LIVER S-9, PHENOBARBITAL AND BETA-NAPHTHOFLAVONE, Method: PREINCUBATION) is “inactive; negative”; the mutagenic call (Test System: E.COLI, Strain/Indicator: WP2UVRA, Metabolic Activation: NONE, Method: PREINCUBATION) is “inactive; negative”. Also, the mutagenic call (Test System: E.COLI, Strain/Indicator: WP2UVRA, Metabolic Activation: RAT LIVER S-9, PHENOBARBITAL AND BETA-NAPHTHOFLAVONE, Method: PREINCUBATION) is “inactive; negative”.

These data come from PubChem BioAssay AID1259407 (Chemical Carcinogenesis Research Information System (CCRIS), 2018).
